Tested on: MRSA 10178
Assay: Etest, staphylococci MRSA 10178
Assay type: cell-based
Conditions: MRSA 10178
From the text: The corresponding tests are made based on the usual MIC test: the Etest® (Biomerieux) strip is deposited onto the surface of a seeded agar medium in which the booster has been incorporated. This test enables solvent effect risks, that is a possible interaction with the solvent used in vitro, to be minimised.
The control corresponds to the test made without cineol. A control is made in each solvent tested: distilled water, Tween/water and DMSO.
ED control=antibiotic alone in distilled water
DMSO control=antibiotic alone in DMSO
TE control=antibiotic alone in Tween® 80

[1] = booster 1 mg/L in agar, Tween/water
[2] = booster 4 mg/L in agar, Tween/water
[3] = booster 16 mg/L in agar, Tween/water

O=C(OCc1ccccc1)c1ccccc1 [BB, benzyl benzoate]
MIC of Cefoxitine (booster 1 mg/L in agar, DMSO): 3 mg/L
MIC of Tigecycline (booster 1 mg/L in agar, DMSO): 0.047 mg/L
MIC of Cefoxitine [1]: 3 mg/L
MIC of Tigecycline [1]: 0.094 mg/L
MIC of Cefoxitine (booster 4 mg/L in agar, DMSO): 2 mg/L
MIC of Tigecycline (booster 4 mg/L in agar, DMSO): 0.125 mg/L
MIC of Cefoxitine [2]: 2 mg/L
MIC of Tigecycline [2]: 0.25 mg/L
MIC of Cefoxitine (booster 16 mg/L in agar, DMSO): 1 mg/L
MIC of Tigecycline (booster 16 mg/L in agar, DMSO): 0.032 mg/L
MIC of Cefoxitine [3]: 1.5 mg/L
MIC of Tigecycline [3]: 0.047 mg/L

CC(=O)OCC=Cc1ccccc1 [AC, cinnamyl acetate]
MIC of Cefoxitine (booster 1 mg/L in agar, DMSO): 4 mg/L
MIC of Tigecycline (booster 1 mg/L in agar, DMSO): 0.125 mg/L
MIC of Cefoxitine [1]: 4 mg/L
MIC of Tigecycline [1]: 0.125 mg/L
MIC of Cefoxitine (booster 4 mg/L in agar, DMSO): 1 mg/L
MIC of Tigecycline (booster 4 mg/L in agar, DMSO): 0.047 mg/L
MIC of Cefoxitine [2]: 0.75 mg/L
MIC of Tigecycline [2]: 0.047 mg/L
MIC of Cefoxitine (booster 16 mg/L in agar, DMSO): <0.016 mg/L
MIC of Tigecycline (booster 16 mg/L in agar, DMSO): <0.016 mg/L
MIC of Cefoxitine [3]: <0.016 mg/L
MIC of Tigecycline [3]: <0.016 mg/L

Reference: patent US10758620B2, “Potentiated antimicrobial agents” (SEPTEOS, priority 2014, dated 2020)
